This note sets out measurements from patent publication US11617754B2, “Methods of treating heart failure with preserved ejection fraction” (Poxel SA, priority 2017, dated 2023).

What all share (assay type): in vivo, rat
In assay [1] the test system is septal coronary artery of Zucker fa/fa rats. Briefly: Coronary endothelial function: acetylcholine-induced relaxation of septal coronary artery from treated Zucker fa/fa rats. To be noted: 150 mg/kg bid, administration for 9 and 90 days, serotonin-precontracted segments. As for the experimental part:
(§1) Experiments were performed on 12-week-old Male Zucker fa/fa rats or lean control rats purchased from Ch. River (US).
(§2) Animals were kept 2 per cage in standard laboratory conditions, and drugs were administered by gavage (at 9 am and at 6 pm) at the dose of 150 mg/kg bid and administered for 9 or 90 days. Imeglimin's effects on cardiac dysfunction were assessed. • First experiment protocol:
Coronary endothelial function was assessed after 9 or 90 days of treatment, as described previously (Fang Y H et al, Journal of Cardiovascular Pharmacology, 2012, 59: 260-267; Mulder et al., Eur Heart J., 2008, 29:2171-2179). In brief, at the end of the left ventricular function assessment, the heart was removed and immediately placed in cold oxygenated Krebs buffer. A 1.5- to 2-mm-long segment of arteries were carefully dissected and mounted in a small vessel myograph. Normalization procedure was performed after an equilibration period. Segments with an internal diameter<170 μm was excluded to avoid mechanical endothelial injury and unspecific dysfunction. Concentration-response curves to acetylcholine (10^−8 to 3×10^−5 mol/L) were performed in serotonin-precontracted segments (10^−5 mol/L).

In assay [2] the test system is Zucker fa/fa rats. Briefly: Cardiac histology: LV collagen density (Sirius red) in Zucker fa/fa rats. To be noted: 150 mg/kg bid, D90, mean ± SEM. As for the experimental part:
as §1, §2
(§3) The Zucker fa/fa animals were randomized on their body weight in two groups and three groups were then constituted: • Lean rats (Treated with vehicle n=18) • Control Zucker fa/fa rats (Treated with vehicle n=24) • Imeglimin treated Zucker fa/fa rats at the dose of 150 mg/kg bid (n=24)
At the end of the treatment period, the heart was taken out. After fixation, the left ventricle was cut in 3 sections of identical thickness. The sections of the heart were dehydrated and embedded in paraffin. 3 μm-thick sections were cut from each block and mounted on glass slides. Sections were stained with Sirius red for the determination of collagen. Slides were enlarged 500 times using a microscope connected to an image analysis system, as previously described (Mulder et al., J. Am. Coll. Cardiol., 1997). Collagen density was calculated in the left ventricle as the surface occupied by collagen divided by the surface of the image.

The test system of assay [3] is Zucker fa/fa rats. In words: Myocardial perfusion by MRI (arterial spin labeling) in Zucker fa/fa rats. The following applies: 150 mg/kg bid, vs untreated Zucker fa/fa. As for the experimental part: as §1, §2
(§4) The Zucker fa/fa animals were randomized on their body weight in two groups and three groups were then constituted: • Lean rats (Treated with vehicle n=12) • Control Zucker fa/fa rats (Treated with vehicle n=18) • Imeglimin treated Zucker fa/fa rats at the dose of 150 mg/kg bid (n=18)
(§5) After a short-term treatment (9 days), cardiac function (echocardiography and MRI) and cardiac hemodynamics were assessed (1 h after the last treatment) on all rats. • Second experiment protocol: […]
(§6) After a long-term treatment (90 days), cardiac function (echocardiography and MRI) and cardiac hemodynamics were assessed (1 h after the last treatment) on all rats.
The ECG signal was monitored by placing two subcutaneous electrodes on each side of the rat at chest level. […] Upon subtraction of an image acquired without spin labelling, the background signal from static spins is removed and the difference image can be used to quantify perfusion. […]

Assay [4] relates to Zucker fa/fa rats. Briefly: Left ventricular oxidative stress: ROS production in LV homogenates by EPR, Zucker fa/fa rats. To be noted: 150 mg/kg bid. As for the experimental part:
as §1, §2
Left ventricular reactive oxygen species production level were evaluated in left ventricular homogenates (obtained after 9 or 90 days of treatment) by electron paramagnetic resonance spectroscopy (EPR) using the spin probe 1-hydroxy-3-methoxycarbonyl-2,2,5,5-tetramethylpyrrolidine (CMH, Noxygen, Germany), as previously described (Mulder P, Eur Heart J. 2008; 29:2171-2179). Stock solution of CMH (50 mM) were prepared in Krebs-HEPES buffer (0.1 M NaCl, 5 mM KCl, 2.5 mM CaCl2, 1.2 mM MgSO4, 25 mM NaHCO3, 1 mM KH2PO4, 5.6 mM D(+)-Glucose, 20 mM Na-HEPES, pH 7.4) containing 25 μM deferoxamine and 5 μM diethyldithiocarbamate. […] The oxidation of CMH into the stable 3-methoxycarbonyl-proxyl (CM•), driven mainly by superoxide and peroxynitrite reactions, was recorded using a MiniScope MS-200 X-band spectrometer (Magnettech, Germany). […] Intensity of the spectra was measured from the height of the central line. CM• production was quantified using CP° standard and expressed in μmol of CM• per mg of total proteins.

The test system of assay [5] is Zucker fa/fa rats. In words: Cardiac hemodynamics (left ventricular pressure-volume curves) in Zucker fa/fa rats. As for the experimental part: as §1, §2, §4
After a short-term treatment (9 days), cardiac function (echocardiography and MRI) and cardiac hemodynamics were assessed (1 h after the last treatment) on all rats. • Second experiment protocol:
as §3, §6
The imeglimin suspension was prepared at the concentrations used in the study (150 mg/kg) and homogenized in 10 mL of the Methylcellulose solution. The drug suspension was prepared on the day of administration.
Left ventricle function was assessed using left pressure volume curves after 9 or 90 days of treatment, as previously described (Fang Y et al, J Mol Cell Cardiol., 2011, 51:168-176; Fang Y H et al, Journal of Cardiovascular Pharmacology, 2012, 59: 260-267). In brief, a 2F miniaturized combined conductance catheter-micromanometer (model SPR-819, Millar Instruments) connected to a pressure-conductance unit (MPCU-200, Millar) was advanced retrograde via the carotid artery into the left ventricle. This catheter has a micro-manometer surrounded by 4 platinum electrodes; the two outermost electrodes generate a current of 0.1 mA at a frequency of 20 kHz, which is sensed by the two innermost electrodes. Pressure-Volume (PV) loops were recorded at baseline and during loading by gently occluding the abdominal aorta with a cotton swab. Data were stored and analysed by using Millar conductance data acquisition and analysis software. Finally, the following parameters were measured/calculated from the pressure-volume curves: • Left ventricular end-diastolic pressure; • Left ventricular end-systolic pressure; • Left ventricular relaxation constant Tau; • Left ventricular end-diastolic pressure-volume relation; and • Left ventricular end-systolic pressure-volume relation. Coronary Endothelial Function

Assay [6] has as its system Zucker fa/fa rats. In words: Echocardiography, cardiac output in Zucker fa/fa rats. The following applies: 150 mg/kg bid, 90 days, vs untreated Zucker fa/fa. As for the experimental part: as §1, §2, §4, §5, §6
Studies were performed on rats after 9 and 90 days of treatment. […] LV diameters were measured by the American Society of Echocardiography leading-edge method from at least 3 consecutive cardiac cycles. […]

[7] abbreviates: 150 mg/kg bid, 90 days, vs untreated Zucker fa/fa.

As to `CC1N=C(N)NC(N(C)C)=N1` (single isomer, unassigned; (+)) [Imeglimin, (+)-2-amino-3,6-dihydro-4-dimethylamino-6-methyl-1,3,5-triazine], the “acetylcholine-induced relaxation of septal coronary artery (FIG. 3)” value in assay [1] is recorded as “prevented the impairment”. In assay [2], the LV collagen density is 2.52 ± 0.20 %. The “increase in the myocardial perfusion” value in assay [3] (9 days) is on record as “already significant”. Further, the “myocardial perfusion (FIG. 2B)” value in assay [3] (90 days) is reported as “increased”. Moreover, the “LV ROS production” value in assay [4] (D9, mean ± SEM) came out at 27.61 ± 1.29 AU · μg^−1 · h^−1; in assay [4] (D90, mean ± SEM) it was 34.02 ± 1.49 AU · μg^−1 · h^−1. Besides, the “reduction of the left ventricular end-diastolic pressure-volume relation” value in assay [5] (150 mg/kg bid by gavage, 9 days of treatment) was “about 26%”; in assay [5] (150 mg/kg bid by gavage, 90 days of treatment), about 58%; in assay [5] (150 mg/kg bid, 9 days, vs untreated Zucker fa/fa), “already significant”. Besides, the LV compliance increase entry in assay [5] (150 mg/kg bid, 90 days of treatment) is on record as “about 50%”. Also, the “LV end-diastolic pressure (FIG. 1A)” value in assay [5] (setting [7]) is listed as “significant reduction”. For the same compound, the “LV end-diastolic pressure volume relation (FIG. 1C)” value in assay [5] (setting [7]) is listed as “significant reduction”. Further, in assay [5] (setting [7]), the “LV relaxation constant Tau (FIG. 1B)” value was “significant reduction”. Also, in assay [6], the “cardiac output (FIG. 2A)” value was “increased”.
